# Reference: publication PMC6214715 (Journal of veterinary pharmacology and therapeutics, 2018)
# pIC50: −log10 of the molar value. Like-named read-outs stand apart in the source and are kept apart here.
# Experiments:
# [1] = tested on: cat liver microsomes; assay type: in vitro ADME; conditions: for formation to metabolism ratio: feline liver microsomes, formation rate from (±)-tramadol (Perez Jimenez, 2016) / rate of (+)-M5 formation from the (+)-metabolite
# [2] = target: T1, CYP2D15 (Canis lupus familiaris, UniProt Q29473); assay type: in vitro ADME, canine; conditions: recombinant CYP2D15; (+)-M1 10 μM, (+)-M2 0.5 μM
# T1 sequence (Q29473 1-500): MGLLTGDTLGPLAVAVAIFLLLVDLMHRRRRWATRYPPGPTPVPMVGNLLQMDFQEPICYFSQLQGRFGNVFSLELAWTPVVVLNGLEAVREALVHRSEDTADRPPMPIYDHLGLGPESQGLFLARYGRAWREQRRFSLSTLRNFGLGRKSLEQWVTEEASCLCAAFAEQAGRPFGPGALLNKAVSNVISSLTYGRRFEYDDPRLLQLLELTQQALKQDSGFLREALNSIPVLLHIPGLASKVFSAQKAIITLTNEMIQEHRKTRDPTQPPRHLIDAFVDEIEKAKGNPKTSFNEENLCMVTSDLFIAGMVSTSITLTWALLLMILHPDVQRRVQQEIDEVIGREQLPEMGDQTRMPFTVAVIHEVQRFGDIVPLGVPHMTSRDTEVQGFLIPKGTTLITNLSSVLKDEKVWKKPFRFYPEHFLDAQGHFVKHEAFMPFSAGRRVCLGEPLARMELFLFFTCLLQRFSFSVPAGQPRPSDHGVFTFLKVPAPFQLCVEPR
# [3] = tested on: dog liver microsomes; assay type: in vitro ADME; conditions: for Km / Vmax: formation of (+)-M5 from substrate; for formation to metabolism ratio: DLMs, formation rate from (±)-tramadol (Perez Jimenez, 2016) / rate of (+)-M5 formation from the (+)-metabolite
# [4] = rats, after tramadol administration; ref Sheikholeslami, 2016; cited from earlier work
# [5] = tested on: human liver microsomes; assay type: in vitro ADME; conditions: human liver microsomes; formation rate from (±)-tramadol (Perez Jimenez, 2016) / rate of (+)-M5 formation from the (+)-metabolite
# [6] = dog urine; ref Lintz, 1981; cited from earlier work
# [7] = tested on: μ-opioid; conditions: in vitro testing; ref Gillen, 2000; cited from earlier work
# [8] = dogs, after tramadol administration; ref Kukanich, 2011; Giorgi, 2009; cited from earlier work
# [9] = tested on: CYP2D15; conditions: CYP2D15 mediated dextromethorphan o-demethylation in DLMs; ref Aidasani, 2008; cited from earlier work
# [10] = target: T1, CYP2D15; experiment: in vitro; conditions: dog, recombinant enzyme
# [11] = tested on: (+)-M5 formation from (+)-M2 in pooled DLMs; experiment: in vitro; conditions: dog
# [12] = target: T2, CYP2C21 (Canis lupus familiaris, UniProt P56594); experiment: in vitro; conditions: dog, recombinant enzyme
# T2 sequence (P56594 1-487): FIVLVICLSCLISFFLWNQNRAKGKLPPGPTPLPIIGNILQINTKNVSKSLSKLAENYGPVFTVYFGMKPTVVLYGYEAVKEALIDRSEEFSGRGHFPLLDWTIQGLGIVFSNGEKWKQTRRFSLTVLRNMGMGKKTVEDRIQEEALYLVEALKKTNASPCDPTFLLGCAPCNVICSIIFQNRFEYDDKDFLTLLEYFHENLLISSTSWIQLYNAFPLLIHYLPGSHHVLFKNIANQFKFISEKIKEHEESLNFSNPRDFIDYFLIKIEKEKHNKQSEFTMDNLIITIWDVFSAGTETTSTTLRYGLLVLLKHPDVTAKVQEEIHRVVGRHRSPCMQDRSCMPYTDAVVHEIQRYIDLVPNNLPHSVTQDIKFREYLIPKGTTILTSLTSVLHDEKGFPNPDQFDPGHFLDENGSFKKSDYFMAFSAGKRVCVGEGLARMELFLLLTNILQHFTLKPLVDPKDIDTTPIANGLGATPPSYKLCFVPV
# [13] = tested on: (+)-M5 formation from (+)-M1 in pooled DLMs; experiment: in vitro; conditions: dog
compound,measurement,setting,value
"CNCC1CCCCC1(O)c1cccc(OC)c1 (single isomer, unassigned; (+)) [(+)-M2, (+)-N-desmethyltramadol]",(+)-M5 formation rate (in words),"[1]; pooled cat liver microsomes (n = 16), (+)-M1 at 10 μM, (+)-M2 at 0.5 μM",intermediate between human and DLMs
same,formation rate of (+)-M5 (in words),[2],only detected for CYP2D15
same,Km,[3]; Dog 10 liver microsomes,0.46 µM
same,Vmax,[3]; Dog 10 liver microsomes,27 pmol/min/mg protein
same,Km,[3]; Dog 31 liver microsomes,0.39 µM
same,Vmax,[3]; Dog 31 liver microsomes,23 pmol/min/mg protein
same,Km,[3]; Dog 46 liver microsomes,0.38 µM
same,Vmax,[3]; Dog 46 liver microsomes,39 pmol/min/mg protein
same,Km,[3]; pDLM (liver microsomes pooled from 59 dogs),0.56 µM
same,Vmax,[3]; pDLM (pooled from 59 dogs),50 pmol/min/mg protein
same,(+)-M5 formation rate (in words),"[3]; pooled dog liver microsomes (n = 59), (+)-M1 at 10 μM, (+)-M2 at 0.5 μM",highest activities
"CN(C)C[C@H]1CCCC[C@]1(O)c1cccc(O)c1 [M1, O-desmethyltramadol]",CSF to plasma concentration ratio,[4],0.3
same,formation to metabolism ratio,[5],71
same,formation to metabolism ratio,[1],1926
same,formation to metabolism ratio,[3],42
"CNCC1CCCCC1(O)c1cccc(OC)c1 (centres unmarked) [M2, N-desmethyltramadol]",CSF to plasma concentration ratio,[4],0.4
same,formation to metabolism ratio,[5],2.9
same,formation to metabolism ratio,[1],1.7
same,formation to metabolism ratio,[3],3.1
"CNCC1CCCCC1(O)c1cccc(O)c1 (centres unmarked) [M5, N,O-didesmethyltramadol]",M5 and M5 conjugates as a percentage of total metabolites in urine,[6],43%
same,weaker μ-opioid agonist efficacy and potency compared with M1,[7],about 30 times
same,plasma concentration higher than M1 concentrations,[8],about 20 fold
same,CSF to plasma concentration ratio,[4],less than 0.1
same,CSF to plasma ratio less than M1,[4],3 fold
CC(=O)N1CCN(c2ccc(OCC3COC(Cn4ccnc4)(c4ccc(Cl)cc4Cl)O3)cc2)CC1 (centres unmarked) [ketoconazole],pIC50,[9],6.33
C=C[C@H]1C[N@@]2CC[C@H]1C[C@@H]2[C@@H](O)c1ccnc2ccc(OC)cc12 [quinidine],"inhibition at 5 min, 10 μM",[10],> 70%
same,"inhibition at 5 min, 10 μM",[11],> 70%
Nc1ccc(S(=O)(=O)Nc2ccnn2-c2ccccc2)cc1 [sulfaphenazole],"inhibition at 5 min, 100 μM",[10],< 50%
same,"inhibition at 20 min, 100 μM",[12],> 50%
same,"inhibition at 5 min, 100 μM",[11],< 50%
same,"inhibition at 20 min, 100 μM",[13],> 50%
"COc1cccc(C2(O)CCCCC2CN(C)C)c1 (centres unmarked) [tramadol, reference compound]",CSF to plasma concentration ratio,[4],0.44
